Laboratory results taken from patent US7173061B2, “Compounds for imaging alzheimer's disease” (GE Healthcare Limited, priority 2001, dated 2007).
No end group written: not given here.

Molecular target: T1, amyloid 1-40 fibrils (fibrillar BAP 1-40) (Homo sapiens, UniProt P05067)
T1 construct: used to immobilise fibrillar Beta-Amyloid Protein (BAP 1-40); purchased Biosource 03-138 (BAP 1-40); 03-243 (biotinylated BAP 1-40)
Experiment: Determination of amyloid binding (scintillation proximity assay beads coated with fibrillar BAP 1-40)
Settings: SPA-BAP beads, 180 minutes at room temperature, equimolar amounts, SPA-NSB counts subtracted; 125I-BAP binding taken as 100%
Protocol: The binding of Compounds was determined compared to the ability of ^125I-beta amyloid protein 1-40 (^125I-BAP 1-40, Amersham Biosciences IM294)) to bind to amyloid 1-40 fibrils. Amyloid binding was essentially performed as follows.
Three fresh buffer stocks were prepared for experiments: Buffer 1, 50 mM HEPES/0.1% Bovine Serum Albumin (BSA) pH 7.5; Buffer 2, 50 mM HEPES/0.1% BSA/400 μM ZnCl2 pH 7.5; Buffer 3, 50 mM HEPES/0.1% BSA/100 μM ZnCl2 pH 7.5.
Streptavidin coated scintillation proximity assay beads (SA-SPA beads, Amersham Biosciences) were used to immobilise fibrillar Beta-Amyloid Protein (BAP 1-40). Amyloid coated beads (SPA-BAP) were prepared by incubating 250 μl SA-SPA beads (100 mg/ml) with 250 μl Buffer 2, 425 μl Buffer 1, 50 μl biotinylated BAP 1-40 (0.5 mg/ml, Biosource 03–243), 25 μl BAP 1-40 (10 mg/ml, Biosource 03–138). Non-specific binding SPA beads (SPA-NSB) were prepared to assess the binding of compounds to SPA beads with no associated BAP 1-40 fibrils in the following incubation: 250 μl SA-SPA beads (100 mg/ml) with 250 μl Buffer 2, 500 μl Buffer 1.
SPA-BAP and SPA-NSB incubations were left for 24 hours at room temperature and then spun 1.5 ml tubes (eppendorf, Merk, 306/0421/12) for 2 minutes at 1000×g. The supernatants were removed and the beads were washed twice by resuspending them in 1 ml Buffer 3 followed by centrifugation for 2 minutes at 1000×g. Finally, washed SPA-BAP and SPA-NSB beads were resuspended in 1 ml Buffer 3.
Amyloid binding of ^125I-BAP 1-40 and test compounds was performed in triplicate in 0.5 ml tubes (eppendorf, Merk, 306/0421/02) by adding 50 μl SPA-BAP beads to 25 μl Buffer 2 and 25 μl labelled compound (^125I-BAP 1-40 or test compound). Tubes were then incubated for 180 minutes at room temperature with shaking, followed by centrifugation for 2 minutes at 1000×g. The supematants were removed and SPA-BAP pellet washed twice with 300 μl Buffer 3 containing 1% TWEEN-20 (Sigma, P7949). Non-specific binding for labelled compounds to the SPA beads was determined using incubations as described above but by substituting SPA-BAP beads with SPA-NSB beads. Radioactivity associated with the washed SPA bead pellets was then determined.
The affinity of labelled compounds for fibrillar BAP 1-40 was estimated by subtracting SPA-NSB associated counts from SPA-BAP associated counts. The binding of labelled compounds was then compared to ^125I-BAP binding, which was taken as being 100%.
In these experiments, ^125I-BAP 1-40 or test compounds were added in equimolar amounts.

T1 sequence (P05067 672-711): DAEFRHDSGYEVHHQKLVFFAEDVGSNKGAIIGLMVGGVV

Row | Compound | Amyloid binding (% of 125I-BAP 1-40) [%]
1 | CCN(CC)CCOc1ccc(C(=O)c2c(-c3ccc(OCC(=O)NCCN(CCNC(C)(C)/C(C)=N\O)CCNC(C)(C)/C(C)=N\O)cc3)oc3ccc(Cl)cc23)cc1 [Example 1(vii) Pn216 conjugated] | 23
2 | CCN(CC)CCCOc1ccc(C(=O)c2c(-c3ccc(OCC(=O)NCCN(CCNC(C)(C)/C(C)=N/O)CCNC(C)(C)/C(C)=N/O)cc3)oc3ccc(Cl)cc23)cc1 [Example 2(vii) Pn216 conjugated] | 15
3 | C/C(=N\O)C(C)(C)NCCN(CCNC(=O)COc1ccc(-c2cc3cc(Cl)ccc3o2)cc1)CCNC(C)(C)/C(C)=N/O [Example 8(iii) Pn216 conjugated] | 40
4 | ^125I-BAP 1-40: 125I-beta amyloid protein 1-40, Amersham Biosciences IM294; reference whose binding to amyloid fibrils is taken as 100% [reference compound] | 100
5 | ^125I-KKLVFFA (BAP 15-21): 125I-labelled BAP 15–21 sequence (Amersham Biosciences), responsible for the binding of BAP to itself (also: 125I label) [reference compound] | 21
